For series [1], the target named is T1, COX-1 (Mus musculus, UniProt P22437).
T1 construct: there is no pre-treatment of aspirin and LPS in the adhesion of macrophage; endogenous in cells; host or cells: peritoneal macrophages of C57BL/6 mouse, without aspirin and LPS pre-treatment
T1 sequence (P22437 27-602): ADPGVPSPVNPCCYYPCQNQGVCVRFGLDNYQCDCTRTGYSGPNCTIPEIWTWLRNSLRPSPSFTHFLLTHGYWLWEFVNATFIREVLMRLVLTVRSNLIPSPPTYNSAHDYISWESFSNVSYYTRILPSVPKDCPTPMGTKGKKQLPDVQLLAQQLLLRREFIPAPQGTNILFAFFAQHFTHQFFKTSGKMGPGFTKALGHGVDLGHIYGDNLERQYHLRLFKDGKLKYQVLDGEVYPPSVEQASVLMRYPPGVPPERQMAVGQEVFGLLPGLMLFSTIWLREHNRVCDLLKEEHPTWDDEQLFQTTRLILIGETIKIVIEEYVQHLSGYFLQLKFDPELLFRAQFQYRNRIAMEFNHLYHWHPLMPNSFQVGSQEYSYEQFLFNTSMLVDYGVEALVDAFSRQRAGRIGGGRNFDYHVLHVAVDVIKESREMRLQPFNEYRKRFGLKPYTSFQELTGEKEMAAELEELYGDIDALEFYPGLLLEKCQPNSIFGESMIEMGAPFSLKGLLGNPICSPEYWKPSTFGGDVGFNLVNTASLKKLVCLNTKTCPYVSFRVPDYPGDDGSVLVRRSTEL
The series can be described thus: Evaluation of COX-1's inhibition efficacy (macrophages without aspirin and LPS pre-treatment). Type of series: cell-based, C57BL/6 mouse. Particulars: for inhibition at 1 µg/mL: 1 μg/ml; for inhibition at 10 µg/mL: 10 μg/ml. The protocol: Regarding the compounds in the above Examples and indomethacin, the inhibition efficacy of COX-2 and COX-1 are being measured by the following two methods.
After cleaning C57BL/6 mouse's abdomen by 70% EtOH, the skin of mouse's abdomen was eliminated cautiously not to harm peritomeum and 5 ml of cold PBS was poured into the abdominal cavity and in certain times later macrophage-bleeding abdominal-liquid was collected by syringe. By adding RPMI-1640 badge containing penicillin(100 unit/mt) and streptomycin([…]) to cell pellet obtained by centrifugation of collected liquid about 5 minutes in 1500 rpm, it was disperesed and also COX-1 existing in the cell was inactivated by treating with 500 μM aspirin. After putting 1 ml cell suspension having cell number of 1×10^6 cells/mu into each 24-well microtiter plates, macrophages were adhered to the bottom of plate by culturing in the condition of 5% CO2/95% O2, at a temperature of 37° C. for 2 hours. Other cells not being adhered to were eliminated by washing two times with PBS. The purity of macrophages obtained through this process was identified by differential counting. After adding RPMI-1640 badge(normally 5×10^5 cell/ml) containing 3% right fetal blood serum to macrophage and treating it with LPS(lipopolysaccharide) to make final concentration as 10 μg/ml, it was cultured in the condition of 5% CO2, at a temperature of 37° C. for 16 hours. After inducing COX-2 by LPS, the cell culture medium was eliminated and macrophages was washed two times with PBS. And 1 ml of RRPI-1640 badge was added to each well again and after treating them with sample with appropriate concentration, they were cultured at a temperature of 37i É for 10 minutes. And then treated them with arachidonic acid to make their final concentration as 10 μM and cultured them additional 10 minutes, all the supernatant liquid of reaction was obtained. The amount of PGE2 produced in the supernatant liquid of reaction was determined by the PGE2 radioimmuno assay. The 100% COX-2's activation is referenced by the difference of the amount of PGE2 produced in the supernatant liquid of reaction between with 10 μM arachidonic acid treatment and without 10 μM arachidonic acid treatment.
2. Evaluation of COX-1's Inhibition Efficacy
Following the same procedure as the above evaluation of COX-2's inhibition efficacy, but there is no pre-treatment of aspirin and LPS in the adhesion of macrophage.

Series [2] deals with T2, COX-2 (Mus musculus, UniProt Q05769).
T2 construct: endogenous in cells; host or cells: peritoneal macrophages of C57BL/6 mouse, aspirin-pretreated, LPS-induced
T2 sequence (Q05769 18-604): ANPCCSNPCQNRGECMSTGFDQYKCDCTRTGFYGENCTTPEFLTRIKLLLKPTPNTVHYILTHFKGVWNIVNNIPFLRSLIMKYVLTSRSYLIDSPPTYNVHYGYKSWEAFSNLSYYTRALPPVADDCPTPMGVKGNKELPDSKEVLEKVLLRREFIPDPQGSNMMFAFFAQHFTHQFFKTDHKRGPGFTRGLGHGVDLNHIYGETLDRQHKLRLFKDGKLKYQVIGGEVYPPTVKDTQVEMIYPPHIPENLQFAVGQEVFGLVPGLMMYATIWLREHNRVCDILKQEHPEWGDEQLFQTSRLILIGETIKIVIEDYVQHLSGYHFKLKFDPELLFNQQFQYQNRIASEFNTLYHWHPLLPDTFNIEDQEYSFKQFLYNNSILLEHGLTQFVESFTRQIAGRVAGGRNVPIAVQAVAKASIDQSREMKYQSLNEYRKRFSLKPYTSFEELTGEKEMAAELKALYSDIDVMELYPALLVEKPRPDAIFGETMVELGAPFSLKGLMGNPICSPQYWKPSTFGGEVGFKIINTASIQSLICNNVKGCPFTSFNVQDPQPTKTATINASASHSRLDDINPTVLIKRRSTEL
The series can be described thus: Evaluation of COX-2's inhibition efficacy (PGE2 radioimmuno assay, LPS-induced, aspirin-pretreated peritoneal macrophages). Type of series: cell-based, C57BL/6 mouse. Particulars: for inhibition at 0.1 µg/mL: 0.1 μg/ml; for inhibition at 1 µg/mL: 1 μg/ml; for inhibition at 10 µg/mL: 10 μg/ml. The protocol: Regarding the compounds in the above Examples and indomethacin, the inhibition efficacy of COX-2 and COX-1 are being measured by the following two methods. […] Evaluation of COX-2's Inhibition Efficacy (J. Pharmacol. Exp. […] After cleaning C57BL/6 mouse's abdomen by 70% EtOH, the skin of mouse's abdomen was eliminated cautiously not to harm peritomeum and 5 ml of cold PBS was poured into the abdominal cavity and in certain times later macrophage-bleeding abdominal-liquid was collected by syringe. […] After putting 1 ml cell suspension having cell number of 1×10^6 cells/mu into each 24-well microtiter plates, macrophages were adhered to the bottom of plate by culturing in the condition of 5% CO2/95% O2, at a temperature of 37° C. for 2 hours. Other cells not being adhered to were eliminated by washing two times with PBS. The purity of macrophages obtained through this process was identified by differential counting. […] After inducing COX-2 by LPS, the cell culture medium was eliminated and macrophages was washed two times with PBS. And 1 ml of RRPI-1640 badge was added to each well again and after treating them with sample with appropriate concentration, they were cultured at a temperature of 37i É for 10 minutes. And then treated them with arachidonic acid to make their final concentration as 10 μM and cultured them additional 10 minutes, all the supernatant liquid of reaction was obtained. The amount of PGE2 produced in the supernatant liquid of reaction was determined by the PGE2 radioimmuno assay.

What is called inhibition is the percentage by which the read-out fell short of the control. In general, melting point refers to the temperature, or range, at which the solid turns liquid. With `NS(=O)(=O)c1ccc(-c2oc3ccccc3c(=O)c2-c2ccc(F)cc2)cc1` [Example 52, 2-(4-(Aminosulfonyl)phenyl)-3-(4-fluorophenyl)-4H-1-benzopyran-4-one], the melting point fell in the range of 267 to 268 °C. Moreover, in series [1], the inhibition at 1 µg/mL amounted to 62% and the inhibition at 10 µg/mL was determined as 67%. Besides, in series [2], the inhibition at 0.1 µg/mL amounted to 73%, the inhibition at 1 µg/mL amounted to 96% and the inhibition at 10 µg/mL is 99%.

In the case of `CS(=O)(=O)c1ccc(-c2oc3ccccc3c(=S)c2-c2ccccc2F)cc1` [Example 45, 3-(2-Fluorophenyl)-2-(4-(methylsulfonyl)phenyl)-4H-1-benzopyran-4-thione], the melting point is 198 to 200 °C.

Compound `NS(=O)(=O)c1ccc(-c2oc3ccc(F)cc3c(=O)c2-c2ccc(Cl)cc2)cc1` [Example 50, 2-(4-(Aminosulfonyl)phenyl)-6-fluoro-3-(4-chlorophenyl)-4H-1-benzopyran-4-one] registered a melting point of 215 to 217 °C. Further, in series [2], the inhibition at 0.1 µg/mL turned out to be 5%, the inhibition at 1 µg/mL came to 80% and the inhibition at 10 µg/mL was 87%.

As for `CC(=O)c1ccc(-c2c(-c3ccc(S(C)(=O)=O)cc3)oc3ccccc3c2=O)cc1` [Example 8, 3-(4-Acetylphenyl)-2-(4-(methylsulfonyl)phenyl)-4H-1-benzopyran-4-one], the melting point fell in the range of 223 to 224 °C.

As to `CS(=O)(=O)c1ccc(-c2oc3ccccc3c(=O)c2-c2cccs2)cc1` [Example 7, 2-(4-(Methylsulfonyl)phenyl)-3-(2-thienyl)-4H-1-benzopyran-4-one], the melting point was in the range of 165 to 167 °C.

For `CS(=O)(=O)c1ccc(-c2oc3ccccc3c(=S)c2-c2cccc(Cl)c2Cl)cc1` [Example 38, 3-(2,3-Dichlorophenyl)-2-(4-(methylsulfonyl)phenyl)-4H-1-benzopyran-4-thione], the melting point was in the range of 191 to 192 °C. Moreover, in series [2], the inhibition at 0.1 µg/mL amounted to 18%, the inhibition at 1 µg/mL came out at 77% and the inhibition at 10 µg/mL was 96%.

For `CS(=O)(=O)c1ccc(-c2oc3ccccc3c(=O)c2-c2cccc3ccccc23)cc1` [Example 13, 2-(4-(methylsulfonyl)phenyl)-3-(1-naphthyl)-4H-1-benzopyran-4-one], the melting point lay within 193 to 194 °C.

The compound `Cc1ccc(-c2c(-c3ccc(S(C)(=O)=O)cc3)oc3ccccc3c2=S)cc1` [Example 43, 3-(4-Methylphenyl)-2-(4-(methylsulfonyl)phenyl)-4H-1-benzopyran-4-thione] showed a melting point of 204 to 205 °C.

On to `COc1ccc(-c2c(-c3ccc(S(C)(=O)=O)cc3)oc3ccccc3c2=S)cc1` [Example 44, 3-(4-Methoxyphenyl)-2-(4-(methylsulfonyl)phenyl)-4H-1-benzopyran-4-thione], for which the melting point amounted to 199 °C.

The compound `CS(=O)(=O)c1ccc(-c2oc3ccccc3c(=O)c2-c2ccc(Cl)cc2Cl)cc1` [Example 5, 3-(2,4-Dichlorophenyl)-2-(4-(methylsulfonyl)phenyl)-4H-1-benzopyran-4-one] came in with a melting point of 172 to 175 °C. In series [2], the inhibition at 0.1 µg/mL came out at 39%, the inhibition at 1 µg/mL was found to be 90% and the inhibition at 10 µg/mL came to 100%.

In turn, `CS(=O)(=O)c1ccc(-c2oc3ccccc3c(=S)c2-c2cccc(F)c2)cc1` [Example 46, 3-(3-Fluorophenyl)-2-(4-(methylsulfonyl)phenyl)-4H-1-benzopyran-4-thione] yielded a melting point of 212 °C. Further, in series [2], the inhibition at 0.1 µg/mL turned out to be 4%, the inhibition at 1 µg/mL was found to be 67% and the inhibition at 10 µg/mL stood at 91%.

`Cc1cccc(-c2c(-c3ccc(S(C)(=O)=O)cc3)oc3ccccc3c2=S)c1` [Example 39, 3-(3-Methylphenyl)-2-(4-(methylsulfonyl)phenyl)-4H-1-benzopyran-4-thione] returned a melting point of 201 to 202 °C. Moreover, in series [2], the inhibition at 0.1 µg/mL worked out at 11%, the inhibition at 1 µg/mL was found to be 31% and the inhibition at 10 µg/mL stood at 86%.

In the case of `CS(=O)(=O)c1ccc(-c2oc3ccccc3c(=S)c2-c2ccc(Cl)c(Cl)c2)cc1` [Example 42, 3-(3,4-Dichlorophenyl)-2-(4-(methylsulfonyl)phenyl)-4H-1-benzopyran-4-thione], the melting point worked out at 168 °C.

Turning to `NS(=O)(=O)c1ccc(-c2oc3ccc(F)cc3c(=S)c2-c2ccc(F)cc2)cc1` [Example 68, 2-(4-(Aminosulfonyl)phenyl)-6-fluoro-3-(4-fluorophenyl)-4H-1-benzopyran-4-thione], in series [1], the inhibition at 1 µg/mL stood at 58% and the inhibition at 10 µg/mL worked out at 83%. Moreover, in series [2], the inhibition at 0.1 µg/mL is 89% and the inhibition at 1 µg/mL is 100%.

Consider `Cc1ccc(-c2c(-c3ccc(S(N)(=O)=O)cc3)oc3ccc(F)cc3c2=O)cc1` [Example 49, 2-(4-(Aminosulfonyl)phenyl)-6-fluoro-3-(4-methylphenyl)-4H-1-benzopyran-4-one], for which the melting point lay in the range of 215 to 217 °C. Moreover, in series [2], the inhibition at 0.1 µg/mL was 32%, the inhibition at 1 µg/mL worked out at 76% and the inhibition at 10 µg/mL was found to be 92%.

Consider `NS(=O)(=O)c1ccc(-c2oc3cc(F)ccc3c(=O)c2-c2ccc(Cl)c(Cl)c2)cc1` [Example 62, 2-(4-(Aminosulfonyl)phenyl)-7-fluoro-3-(3,4-dichlorophenyl)-4H-1-benzopyran-4-one], for which, in series [1], the inhibition at 1 µg/mL is 54% and the inhibition at 10 µg/mL turned out to be 76%. Further, in series [2], the inhibition at 0.1 µg/mL was determined as 89% and the inhibition at 1 µg/mL is 100%.

Source of the values: patent US6340694B1, “Diarylbenzopyran derivatives as cyclooxygenase-2 inhibitors” (Pacific Corporation, priority 1998, dated 2002).
